Target: Sphingosine kinase 1 (SK1) (Homo sapiens, UniProt Q9NYA1)
Test: […]S1P formation assay, single concentration […]
Assay type: biochemical
Conditions: read-out: % inhibition at 50 μM

Sequence of Sphingosine kinase 1 (SK1) (Q9NYA1 whole entry): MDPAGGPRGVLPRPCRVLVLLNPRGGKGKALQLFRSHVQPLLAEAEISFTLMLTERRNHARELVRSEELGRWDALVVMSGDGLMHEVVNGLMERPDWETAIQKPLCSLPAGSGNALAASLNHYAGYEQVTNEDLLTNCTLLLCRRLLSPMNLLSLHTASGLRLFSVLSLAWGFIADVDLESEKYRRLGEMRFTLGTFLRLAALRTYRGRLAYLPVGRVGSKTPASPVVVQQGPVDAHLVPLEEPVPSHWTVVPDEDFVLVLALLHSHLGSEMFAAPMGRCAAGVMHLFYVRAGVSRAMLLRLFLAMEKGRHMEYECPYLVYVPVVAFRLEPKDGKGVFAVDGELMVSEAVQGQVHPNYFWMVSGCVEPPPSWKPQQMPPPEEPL

**Q.** How did the inhibition at 50 µM turn out when CCCCCCCCc1ccc(CCC(N)(CO)CO)cc1 [FTY720] was run?
**A.** Its inhibition at 50 µM is about 40%.

Reference: publication PMC2947314 (Cellular Signalling, 2010)
